Measurements taken from paper PMC5418449, “Characterisation of CCT271850, a selective, oral and potent MPS1 inhibitor, used to directly measure in vivo MPS1 inhibition vs therapeutic efficacy” (British Journal of Cancer, 2017).
Like-named read-outs stand apart in the source and are kept apart here.

How the values were obtained:
KGN [1] = test system: KGN; set-up: 14-day clonogenic growth inhibition assay, human cancer cell line panel; details: 14-day clonogenic assay; inhibitor; read-out: Table S1. IC50 of CCT271850 determined by MTT and clonogenic assays (CA). / All cell lines were tested at least 2 times. / 14-day CA
Method: (§1) To evaluate CCT271850 antiproliferation effects in a large panel of human cancer cell lines, 91 cell lines were treated for 72 h and 14 days at different compound concentrations in growth inhibition assays. The growth inhibition values as measured by IC50 are summarised in Table 2 and Supplementary Table S1. […] Cell lines from colon and head and neck cancers were among the most sensitive.

SMOV2 [2] = test system: SMOV2; set-up: 14-day clonogenic growth inhibition assay, human cancer cell line panel; details: 14-day clonogenic assay; inhibitor; read-out: Table S1. IC50 of CCT271850 determined by MTT and clonogenic assays (CA). / All cell lines were tested at least 2 times. / 14-day CA
Method: as §1

PJ34 = test system: PJ34; set-up: MTT antiproliferation assay, absorbance at 570 nm, human cancer cell line panel; details: 3-day MTT; inhibitor; read-out: Table S1. IC50 of CCT271850 determined by MTT and clonogenic assays (CA). / All cell lines were tested at least 2 times. / 3-day MTT
Method: (§2) Cell lines were obtained from the American Type Culture Collection and grown in their recommended culture medium, supplemented with 10% FBS at 37 °C in 5% CO2. In-house authentication of cell lines by SNP profiling was carried out and cultured cells were passaged for less than 6 months before replacement from early-passage frozen stocks. Cells were regularly screened for Mycoplasma, using a PCR-based assay (VenorGem; Minerva Biolabs, Berlin, Germany). Transfections were carried out at ∼80% confluency with the plasmids indicated, using Lipofectamine LTX (15338030, Life Technologies, Carlsbad, CA, USA) according to the manufacturer's instructions. Cell proliferation assays were carried out by colorimetric MTT method (Sigma, St Louis, MO, USA) as described elsewhere ([Mosmann, 1983]). Briefly, cells were plated in 96-well plates at 2000–5000 cells per well (depending on the cell line) followed by treatment with two-fold dilutions of 0–25 μM drug for 72 h. Absorbance was measured at 570 nm with the Wallac VICTOR2 1420 Multilabel Counter (PerkinElmer, Waltham, MA, USA). To evaluate CCT271850 antiproliferation effects in a large panel of human cancer cell lines, 91 cell lines were treated for 72 h and 14 days at different compound concentrations in growth inhibition assays. The growth inhibition values as measured by IC50 are summarised in Table 2 and Supplementary Table S1. […] Cell lines from colon and head and neck cancers were among the most sensitive.

AspC-1 = test system: AspC-1; set-up: MTT antiproliferation assay, absorbance at 570 nm, human cancer cell line panel; details: 3-day MTT; inhibitor; read-out: Table S1. IC50 of CCT271850 determined by MTT and clonogenic assays (CA). / All cell lines were tested at least 2 times. / 3-day MTT
Method: as §2

OAW28 = test system: OAW28; set-up: MTT antiproliferation assay, absorbance at 570 nm, human cancer cell line panel; details: 3-day MTT; inhibitor; read-out: Table S1. IC50 of CCT271850 determined by MTT and clonogenic assays (CA). / All cell lines were tested at least 2 times. / 3-day MTT
Method: as §2

KGN [3] = test system: KGN; set-up: MTT antiproliferation assay, absorbance at 570 nm, human cancer cell line panel; details: 3-day MTT; inhibitor; read-out: Table S1. IC50 of CCT271850 determined by MTT and clonogenic assays (CA). / All cell lines were tested at least 2 times. / 3-day MTT
Method: as §2

Kuramochi = test system: Kuramochi; set-up: MTT antiproliferation assay, absorbance at 570 nm, human cancer cell line panel; details: 3-day MTT; inhibitor; read-out: Table S1. IC50 of CCT271850 determined by MTT and clonogenic assays (CA). / All cell lines were tested at least 2 times. / 3-day MTT
Method: as §2

Suit-2 = test system: Suit-2; set-up: MTT antiproliferation assay, absorbance at 570 nm, human cancer cell line panel; details: 3-day MTT; inhibitor; read-out: Table S1. IC50 of CCT271850 determined by MTT and clonogenic assays (CA). / All cell lines were tested at least 2 times. / 3-day MTT
Method: as §2

IGROV1 = test system: IGROV1; set-up: MTT antiproliferation assay, absorbance at 570 nm, human cancer cell line panel; details: 3-day MTT; inhibitor; read-out: Table S1. IC50 of CCT271850 determined by MTT and clonogenic assays (CA). / All cell lines were tested at least 2 times. / 3-day MTT
Method: as §2

BxPC-3 = test system: BxPC-3; set-up: MTT antiproliferation assay, absorbance at 570 nm, human cancer cell line panel; details: 3-day MTT; inhibitor; read-out: Table S1. IC50 of CCT271850 determined by MTT and clonogenic assays (CA). / All cell lines were tested at least 2 times. / 3-day MTT
Method: as §2

005A = test system: 005A; set-up: MTT antiproliferation assay, absorbance at 570 nm, human cancer cell line panel; details: 3-day MTT; inhibitor; read-out: Table S1. IC50 of CCT271850 determined by MTT and clonogenic assays (CA). / All cell lines were tested at least 2 times. / 3-day MTT
Method: as §2

OAW42 = test system: OAW42; set-up: MTT antiproliferation assay, absorbance at 570 nm, human cancer cell line panel; details: 3-day MTT; inhibitor; read-out: Table S1. IC50 of CCT271850 determined by MTT and clonogenic assays (CA). / All cell lines were tested at least 2 times. / 3-day MTT
Method: as §2

OVCAR5 = test system: OVCAR5; set-up: MTT antiproliferation assay, absorbance at 570 nm, human cancer cell line panel; details: 3-day MTT; inhibitor; read-out: Table S1. IC50 of CCT271850 determined by MTT and clonogenic assays (CA). / All cell lines were tested at least 2 times. / 3-day MTT
Method: as §2

SW626 = test system: SW626; set-up: MTT antiproliferation assay, absorbance at 570 nm, human cancer cell line panel; details: 3-day MTT; inhibitor; read-out: Table S1. IC50 of CCT271850 determined by MTT and clonogenic assays (CA). / All cell lines were tested at least 2 times. / 3-day MTT
Method: as §2

SKOV3 = test system: SKOV3; set-up: MTT antiproliferation assay, absorbance at 570 nm, human cancer cell line panel; details: 3-day MTT; inhibitor; read-out: Table S1. IC50 of CCT271850 determined by MTT and clonogenic assays (CA). / All cell lines were tested at least 2 times. / 3-day MTT
Method: as §2

005B = test system: 005B; set-up: MTT antiproliferation assay, absorbance at 570 nm, human cancer cell line panel; details: 3-day MTT; inhibitor; read-out: Table S1. IC50 of CCT271850 determined by MTT and clonogenic assays (CA). / All cell lines were tested at least 2 times. / 3-day MTT
Method: as §2

Lon-HN5 = test system: Lon-HN5; set-up: MTT antiproliferation assay, absorbance at 570 nm, human cancer cell line panel; details: 3-day MTT; inhibitor; read-out: Table S1. IC50 of CCT271850 determined by MTT and clonogenic assays (CA). / All cell lines were tested at least 2 times. / 3-day MTT
Method: as §2

011B = test system: 011B; set-up: MTT antiproliferation assay, absorbance at 570 nm, human cancer cell line panel; details: 3-day MTT; inhibitor; read-out: Table S1. IC50 of CCT271850 determined by MTT and clonogenic assays (CA). / All cell lines were tested at least 2 times. / 3-day MTT
Method: as §2

EF027 = test system: EF027; set-up: MTT antiproliferation assay, absorbance at 570 nm, human cancer cell line panel; details: 3-day MTT; inhibitor; read-out: Table S1. IC50 of CCT271850 determined by MTT and clonogenic assays (CA). / All cell lines were tested at least 2 times. / 3-day MTT
Method: as §2

SMOV2 [4] = test system: SMOV2; set-up: MTT antiproliferation assay, absorbance at 570 nm, human cancer cell line panel; details: 3-day MTT; inhibitor; read-out: Table S1. IC50 of CCT271850 determined by MTT and clonogenic assays (CA). / All cell lines were tested at least 2 times. / 3-day MTT
Method: as §2

Capan-2 = test system: Capan-2; set-up: MTT antiproliferation assay, absorbance at 570 nm, human cancer cell line panel; details: 3-day MTT; inhibitor; read-out: Table S1. IC50 of CCT271850 determined by MTT and clonogenic assays (CA). / All cell lines were tested at least 2 times. / 3-day MTT
Method: as §2

PATU-8988T = test system: PATU-8988T; set-up: MTT antiproliferation assay, absorbance at 570 nm, human cancer cell line panel; details: 3-day MTT; inhibitor; read-out: Table S1. IC50 of CCT271850 determined by MTT and clonogenic assays (CA). / All cell lines were tested at least 2 times. / 3-day MTT
Method: as §2

HN15 = test system: HN15; set-up: MTT antiproliferation assay, absorbance at 570 nm, human cancer cell line panel; details: 3-day MTT; inhibitor; read-out: Table S1. IC50 of CCT271850 determined by MTT and clonogenic assays (CA). / All cell lines were tested at least 2 times. / 3-day MTT
Method: as §2

015B = test system: 015B; set-up: MTT antiproliferation assay, absorbance at 570 nm, human cancer cell line panel; details: 3-day MTT; inhibitor; read-out: Table S1. IC50 of CCT271850 determined by MTT and clonogenic assays (CA). / All cell lines were tested at least 2 times. / 3-day MTT
Method: as §2

Capan-1 = test system: Capan-1; set-up: MTT antiproliferation assay, absorbance at 570 nm, human cancer cell line panel; details: 3-day MTT; inhibitor; read-out: Table S1. IC50 of CCT271850 determined by MTT and clonogenic assays (CA). / All cell lines were tested at least 2 times. / 3-day MTT
Method: as §2

## COc1cc(-c2cnn(C)c2)ccc1Nc1ncc2ccnc(N[C@@H](C)C(C)(C)C)c2n1 [34h, CCT271850]
KGN [1]
  IC50: 106 nM
SMOV2 [2]
  IC50: 14 nM
PJ34
  IC50: 1120 nM
AspC-1
  IC50: 2400 nM
OAW28
  IC50: 1020 nM
KGN [3]
  IC50: 3120 nM
Kuramochi
  IC50: 4860 nM
Suit-2
  IC50: 435 nM
IGROV1
  IC50: 3590 nM
BxPC-3
  IC50: 525 nM
005A
  IC50: 940 nM
OAW42
  IC50: 880 nM
OVCAR5
  IC50: 730 nM
SW626
  IC50: 4210 nM
SKOV3
  IC50: > 100000 nM
005B
  IC50: 440 nM
Lon-HN5
  IC50: 325 nM
011B
  IC50: 2220 nM
EF027
  IC50: 787 nM
SMOV2 [4]
  IC50: 795 nM
Capan-2
  IC50: 1550 nM
PATU-8988T
  IC50: 665 nM
HN15
  IC50: 1740 nM
015B
  IC50: 350 nM
Capan-1
  IC50: 2050 nM
